Source: ChEMBL document CHEMBL1201862, “PubChem BioAssay data set” (2004)
The source made the active and inactive calls.

Columns and labels:
cells = type: functional
Genome polyprotein = Genome polyprotein (dengue virus type 2, UniProt P29990); test: flavivirus cap methylation enzyme inhibition – biochemical, confirmation dose response, primary screen (AID 588689); type: functional
[1] = target: T1, Polyadenylate-binding protein 1 (Homo sapiens, UniProt P11940); test: MLLE binding blockers, Cy5 peptide tracer – biochemical, fluorescence polarization, Cy5-PAM2 peptide, secondary, miRNA deadenylation inhibitor project, dose response (AID 602260); type: functional; settings: read-out: IC50_Mean
T1 sequence (P11940 whole entry, the tested form may be a part): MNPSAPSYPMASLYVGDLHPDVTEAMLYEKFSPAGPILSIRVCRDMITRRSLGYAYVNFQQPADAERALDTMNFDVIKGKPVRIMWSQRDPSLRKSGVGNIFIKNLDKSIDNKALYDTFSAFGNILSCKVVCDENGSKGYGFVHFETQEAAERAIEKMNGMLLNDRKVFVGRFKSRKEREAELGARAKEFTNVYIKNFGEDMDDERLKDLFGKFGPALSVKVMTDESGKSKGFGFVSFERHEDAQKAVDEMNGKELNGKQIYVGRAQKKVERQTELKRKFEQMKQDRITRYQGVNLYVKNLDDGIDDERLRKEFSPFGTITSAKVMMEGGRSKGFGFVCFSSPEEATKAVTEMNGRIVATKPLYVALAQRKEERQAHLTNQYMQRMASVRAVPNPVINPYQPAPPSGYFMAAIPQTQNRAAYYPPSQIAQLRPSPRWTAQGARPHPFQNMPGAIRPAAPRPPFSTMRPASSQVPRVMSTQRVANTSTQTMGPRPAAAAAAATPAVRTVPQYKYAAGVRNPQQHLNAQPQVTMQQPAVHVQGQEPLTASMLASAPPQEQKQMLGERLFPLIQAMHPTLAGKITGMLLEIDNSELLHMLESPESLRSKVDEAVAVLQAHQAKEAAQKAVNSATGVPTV

[2] = target: T1, Polyadenylate-binding protein 1; test: MLLE domain peptide-binding blockers, IC50 – biochemical, fluorescence polarization, FITC-PAM2 peptide, dose response (AID 602259); type: functional; settings: read-out: IC50_Mean
HEK293 = test: EBV LMP1 TES2 canonical NF-kB signalling blockers – cell-based, HEK293, luciferase, cherry-pick, dose response (AID 588343); type: functional; settings: Homo sapiens
H9c2 = test: cells; type: functional, cell-based; settings: Rattus norvegicus, H9c2, Myocardium;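 further: confirmatory concentration-response retest of ultra-high-throughput screening hits for modulation of myocardial damage; cell death induced by hydrogen peroxide oxidative stress; compound pretreatment for 60 min then peroxide exposure for 2 h; potency is for protecting the cells against peroxide damage rather than for killing them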
Leucine aminopeptidase = target: T2, Leucine aminopeptidase (Plasmodium falciparum 3D7, UniProt Q8IL11); test: P. falciparum M17LAP inhibitors, primary screen, biochemical, fluorogenic H-Leu-NHMec substrate, 1536-well (AID 1619); type: functional
T2 sequence (Q8IL11 whole entry): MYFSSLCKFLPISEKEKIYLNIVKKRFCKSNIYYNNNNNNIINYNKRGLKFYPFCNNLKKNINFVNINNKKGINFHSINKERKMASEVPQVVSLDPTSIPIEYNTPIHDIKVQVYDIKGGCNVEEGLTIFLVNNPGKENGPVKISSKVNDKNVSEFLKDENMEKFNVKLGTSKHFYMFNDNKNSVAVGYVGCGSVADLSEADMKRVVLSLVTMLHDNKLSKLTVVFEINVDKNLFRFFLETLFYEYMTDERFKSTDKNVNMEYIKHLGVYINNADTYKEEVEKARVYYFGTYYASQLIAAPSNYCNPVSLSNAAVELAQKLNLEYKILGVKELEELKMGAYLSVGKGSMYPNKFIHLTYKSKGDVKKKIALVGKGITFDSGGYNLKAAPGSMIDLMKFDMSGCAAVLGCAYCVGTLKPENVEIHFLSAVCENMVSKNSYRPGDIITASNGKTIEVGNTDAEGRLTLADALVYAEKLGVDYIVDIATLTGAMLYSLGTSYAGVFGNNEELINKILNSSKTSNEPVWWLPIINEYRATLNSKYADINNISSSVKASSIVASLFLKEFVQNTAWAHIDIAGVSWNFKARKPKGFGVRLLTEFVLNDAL

[3] = target: T3, Corticotropin-releasing factor receptor 2/Corticotropin-releasing factor-binding protein (Homo sapiens, UniProt P24387+Q13324); test: activators of CRF receptor 2 with binding protein – uHTS hits, confirmation (AID 602473); type: functional; settings: read-out: EC50_Mean
T3 sequence (Q13324 whole entry): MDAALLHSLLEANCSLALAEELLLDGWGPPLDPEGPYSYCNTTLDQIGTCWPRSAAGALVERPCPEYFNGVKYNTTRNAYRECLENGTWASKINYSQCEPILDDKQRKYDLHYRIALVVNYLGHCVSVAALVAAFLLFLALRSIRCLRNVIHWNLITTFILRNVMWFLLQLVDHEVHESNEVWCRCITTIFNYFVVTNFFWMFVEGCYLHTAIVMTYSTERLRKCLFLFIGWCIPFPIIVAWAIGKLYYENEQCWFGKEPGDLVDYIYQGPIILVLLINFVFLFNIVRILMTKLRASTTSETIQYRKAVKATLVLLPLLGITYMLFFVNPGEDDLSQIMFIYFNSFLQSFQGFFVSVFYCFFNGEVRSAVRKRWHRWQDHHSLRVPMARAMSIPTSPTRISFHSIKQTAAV
T3 sequence (P24387 whole entry): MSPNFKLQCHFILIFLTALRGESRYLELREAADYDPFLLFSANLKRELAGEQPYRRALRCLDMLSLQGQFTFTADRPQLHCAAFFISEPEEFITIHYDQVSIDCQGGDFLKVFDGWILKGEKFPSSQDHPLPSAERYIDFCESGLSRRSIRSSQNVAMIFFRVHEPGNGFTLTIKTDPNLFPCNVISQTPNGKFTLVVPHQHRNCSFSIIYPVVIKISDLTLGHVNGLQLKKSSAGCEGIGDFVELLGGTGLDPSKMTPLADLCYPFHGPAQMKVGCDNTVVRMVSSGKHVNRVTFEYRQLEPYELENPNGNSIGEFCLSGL

[4] = target: T4, High affinity choline transporter 1 (Homo sapiens, UniProt Q9GZV3); test: human choline transporter blockers, potency – cell-based, 5-point CRC, membrane potential dye, dose response (AID 504840); type: functional
T4 sequence (Q9GZV3 whole entry): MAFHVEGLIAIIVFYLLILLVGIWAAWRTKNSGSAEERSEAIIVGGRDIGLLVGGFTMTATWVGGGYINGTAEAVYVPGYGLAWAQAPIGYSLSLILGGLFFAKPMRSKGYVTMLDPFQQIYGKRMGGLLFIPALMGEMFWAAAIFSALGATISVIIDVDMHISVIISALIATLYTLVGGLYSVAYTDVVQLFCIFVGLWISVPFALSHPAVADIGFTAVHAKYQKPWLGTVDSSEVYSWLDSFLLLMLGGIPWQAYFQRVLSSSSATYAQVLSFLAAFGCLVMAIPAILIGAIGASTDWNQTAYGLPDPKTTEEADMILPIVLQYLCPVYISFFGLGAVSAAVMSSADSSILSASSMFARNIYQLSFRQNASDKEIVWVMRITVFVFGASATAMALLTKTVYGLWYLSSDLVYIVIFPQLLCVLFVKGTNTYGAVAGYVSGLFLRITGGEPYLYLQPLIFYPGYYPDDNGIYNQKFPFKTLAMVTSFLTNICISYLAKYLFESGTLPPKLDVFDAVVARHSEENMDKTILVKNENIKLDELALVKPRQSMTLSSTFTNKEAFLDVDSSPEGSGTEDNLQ

INS1 = test: INS-1E survival protection against cytokine death – cell-based, luminescence, retest, dose response (AID 449756); type: functional; settings: Rattus norvegicus;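 further: cell death triggered by IL-1 beta plus TNF-alpha plus IFN-gamma mixture; protective hits raise ATP signal compared with cytokine alone wells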
[5] = viability of PTEN-deleted HCT116 cells – cell-based, HCT116 PTEN knockout, dose response (AID 1047); type: functional;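 further: HCT116 colon tumor cells with PTEN knocked out; cells exposed to compound for 60 hours before readout; potency for loss of cell viability measured by luminescence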
[6] = non-specific 3'UTR reporter inhibition in Clone20-Shn3RL – cell-based, Renilla luciferase, cherry-picked, counter-screen for Shn3 inhibitor project, dose response (AID 624133); type: functional
[7] = loss of viability in HepG2 cells – cell-based, CellTiter-Glo, cherry-picked, cytotoxicity control for Shn3 inhibitor project, dose response (AID 624134); type: functional
[8] = reduction of Shn3 3'UTR-driven luciferase in osteoblasts – cell-based, Clone20 osteoblasts, firefly luciferase, cherry-picked, dose response (AID 624132); type: functional;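 further: firefly luciferase luminescence from reporter carrying the Shn3 3'UTR in osteoblasts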
[9] = viability of HCT116 lacking mutant beta-catenin – cell-based, human colon tumor, dose response (AID 1045); type: functional;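 further: HCT116 colon tumor cells with beta catenin knocked out; cells exposed to compound for 60 hours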
[10] = target: T5, Carboxy-terminal domain RNA polymerase II polypeptide A small phosphatase 1 (Homo sapiens, UniProt Q9GZU7); test: CTDSP1 inhibitors, concentration-response, biochemical, absorbance readout, ultra-high-throughput screen actives (AID 540297); type: functional
T5 sequence (Q9GZU7 whole entry): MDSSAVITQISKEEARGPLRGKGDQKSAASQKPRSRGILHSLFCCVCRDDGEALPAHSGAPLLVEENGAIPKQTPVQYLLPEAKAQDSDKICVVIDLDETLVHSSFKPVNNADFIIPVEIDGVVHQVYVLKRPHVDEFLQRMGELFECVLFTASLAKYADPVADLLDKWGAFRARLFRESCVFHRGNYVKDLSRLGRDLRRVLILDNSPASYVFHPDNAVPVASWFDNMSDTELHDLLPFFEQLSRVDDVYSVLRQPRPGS

Paired box protein Pax-8 = Paired box protein Pax-8 (Homo sapiens, UniProt Q06710); test: PAX8 transcriptional activity inhibition in RMG-I – RMG-I cells, luciferase, cherry-pick, dose response (AID 687027); type: functional, cell-based;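 further: luciferase reporter driven by Pax8 target thyroperoxidase promoter measured by SteadyGlo luminescence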
Paired box protein Pax-8, sequence (Q06710 whole entry): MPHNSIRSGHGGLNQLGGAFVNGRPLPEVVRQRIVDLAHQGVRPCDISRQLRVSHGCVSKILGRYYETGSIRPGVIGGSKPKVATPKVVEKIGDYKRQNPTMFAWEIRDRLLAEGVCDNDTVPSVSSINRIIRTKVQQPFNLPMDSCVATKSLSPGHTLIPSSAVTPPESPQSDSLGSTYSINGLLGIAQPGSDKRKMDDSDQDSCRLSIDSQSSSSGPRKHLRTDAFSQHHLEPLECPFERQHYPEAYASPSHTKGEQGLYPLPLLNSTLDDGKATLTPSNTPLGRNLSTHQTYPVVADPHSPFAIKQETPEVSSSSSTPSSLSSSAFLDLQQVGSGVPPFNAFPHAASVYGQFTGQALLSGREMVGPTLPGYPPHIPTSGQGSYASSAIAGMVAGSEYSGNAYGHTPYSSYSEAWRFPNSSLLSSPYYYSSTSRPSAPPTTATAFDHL

[11] = OVCAR8 cell viability loss – plate reader, dry powder samples, PAX8 project, dose response (AID 743197); type: functional, cell-based; settings: OVCAR-8
[12] = viability of uninfected HEp-2 cells – cell-based, HTS, cytotoxicity control for RSV inhibitor project, dose response (AID 2410); type: functional; settings: human respiratory syncytial virus

Genome polyprotein, sequence (P29990 2492-3391 limits assumed): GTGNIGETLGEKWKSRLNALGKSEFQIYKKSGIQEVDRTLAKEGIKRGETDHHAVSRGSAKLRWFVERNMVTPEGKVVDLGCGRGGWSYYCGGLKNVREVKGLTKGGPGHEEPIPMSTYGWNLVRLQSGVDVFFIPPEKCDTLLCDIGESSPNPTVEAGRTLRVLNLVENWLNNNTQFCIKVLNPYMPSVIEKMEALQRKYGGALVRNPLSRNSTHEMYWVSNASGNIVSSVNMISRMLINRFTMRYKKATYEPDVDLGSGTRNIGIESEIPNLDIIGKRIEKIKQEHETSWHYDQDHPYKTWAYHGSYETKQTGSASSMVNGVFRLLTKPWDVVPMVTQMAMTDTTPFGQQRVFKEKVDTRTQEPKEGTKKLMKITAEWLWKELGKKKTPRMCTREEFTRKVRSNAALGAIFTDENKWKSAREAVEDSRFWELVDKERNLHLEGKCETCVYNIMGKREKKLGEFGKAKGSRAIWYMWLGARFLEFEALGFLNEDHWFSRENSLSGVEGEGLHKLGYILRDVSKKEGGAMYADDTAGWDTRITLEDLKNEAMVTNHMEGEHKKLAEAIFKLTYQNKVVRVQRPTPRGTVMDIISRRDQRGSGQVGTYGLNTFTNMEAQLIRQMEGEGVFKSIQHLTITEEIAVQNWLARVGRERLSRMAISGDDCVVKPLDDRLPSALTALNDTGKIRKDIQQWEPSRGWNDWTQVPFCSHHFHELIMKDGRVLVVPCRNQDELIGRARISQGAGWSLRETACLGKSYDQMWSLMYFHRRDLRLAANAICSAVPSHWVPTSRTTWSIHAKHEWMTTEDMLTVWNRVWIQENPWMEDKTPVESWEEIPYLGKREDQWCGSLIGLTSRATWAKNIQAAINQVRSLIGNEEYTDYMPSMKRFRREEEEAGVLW

With `COc1cc(OC)c2c(OC)cccc2n1` the IC50 (cells) was 30.1 µM (active).
For `Oc1cc(CNC2CCCCC2)c(O)cc1CNC1CCCCC1`, the IC50 (Genome polyprotein) was 27.4 µM (active), the IC50 [1] was > 66 µM (inactive) and the IC50 [2] was 47.7 µM (inactive).
For `COc1ccc(-n2c(C)c(C(C)=O)c3cc(OC(C)=O)ccc32)cc1`, the AC50 (HEK293) was 4.43 µM (active) and the IC50 (H9c2) was > 79 µM (inactive).
For `Cc1cccc(C(=O)NC(=S)NNC(=O)COc2c(C)cccc2C)c1`, the IC50 (Leucine aminopeptidase) was 59.1 µM (active) and the EC50 [3] was 1.65 µM (active).
In the case of `CCOC(=O)c1oc2nc(CC(C)C)c3c(c2c1N)CCCC3`, the IC50 [4] was 12.9 µM (active).
For `C#CCn1/c(=N/C(=O)c2ccc(S(=O)(=O)N3CCc4ccccc4C3)cc2)sc2cc(S(N)(=O)=O)ccc21`, the AC50 (INS1) was 2.68 µM (active), the EC50 [5] was 1.62 µM (active) and the AC50 [6] was 23.9 µM (active). For the same compound, the AC50 [7] was 37.3 µM (active), the AC50 [8] was 1.29 µM (active) and the EC50 [9] was 1.31 µM (active).
In the case of `CN(C)C1=NC[C@H](Cc2ccccc2)N1CCCC1CCCCC1`, the AC50 (INS1) was 7.42 µM (active), the AC50 [6] was 4.98 µM (active) and the AC50 [7] was 20.3 µM (active). The AC50 [8] was 1.47 µM (active).
With `COc1ccc(C2(C(=O)Nc3ccc(S(=O)(=O)Nc4nc(C)cc(C)n4)cc3)CCCC2)cc1OC` the IC50 [4] was 12.3 µM (active).
With `O=C(c1cn[nH]c1)c1cc(F)ccc1O` the IC50 (Leucine aminopeptidase) was 20.9 µM (active).
For `O=C(O)c1cccc2c1/C(=N/Nc1ccc([N+](=O)[O-])cc1[N+](=O)[O-])c1ccccc1-2`, the IC50 [10] was 30.7 µM (active) and the IC50 [4] was 15.2 µM (active).
In the case of `CCCOC(=O)c1ccc(NC(=O)c2ccc(Br)o2)cc1`, the IC50 (cells) was 30.5 µM (active).
In the case of `Cc1ccc(S(=O)(=O)Nc2ccc3c(c2)C(=O)N([C@H](C)CO)C[C@@H](C)[C@H](CN(C)S(=O)(=O)c2ccc(Cl)cc2)OCCCC[C@H](C)O3)cc1`, the AC50 (Paired box protein Pax-8) was 8.13 µM (active) and the AC50 [11] was > 70 µM (inactive).
With `Cc1cccc(NC(=O)c2cc(NC(=O)C3CCCCC3C(=O)O)ccc2N2CCCCC2)c1` (stereo not drawn) the IC50 (Genome polyprotein) was 37.7 µM (active) and the CC50 [12] was 15.7 µM (active).
